System: 883617-216-R-J1-PDC complex spheroid viability
Assay: Anticancer human tumor 883617-216-R-J1-PDC patient-derived bladder carcinoma cell line growth inhibition
Settings: for IC50: curve of first compound; for viability, T/C: stronger effect = lower value
Method in brief: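 Multicellular complex spheroids of tumor cells with human endothelial cells (HUVEC) and mesenchymal stem cells; the LSD1 inhibitor iadademstat was combined with standard-of-care or investigational agents. Top concentration at or near clinical Cmax, half-log dilutions; final DMSO ≤0.25%.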

[1] = second compound 0.1 µM, first compound 0.00316 µM
[2] = second compound 0.1 µM, first compound 0.01 µM
[3] = second compound 0.1 µM, first compound 0.0316 µM
[4] = second compound 0.1 µM, first compound 0.1 µM
[5] = second compound 0.316 µM, first compound 0.00316 µM
[6] = second compound 0.316 µM, first compound 0.01 µM
[7] = second compound 0.316 µM, first compound 0.0316 µM
[8] = second compound 0.316 µM, first compound 0.1 µM
[9] = second compound 1 µM, first compound 0.00316 µM
[10] = second compound 1 µM, first compound 0.01 µM
[11] = second compound 1 µM, first compound 0.0316 µM
[12] = second compound 1 µM, first compound 0.1 µM
[13] = second compound 3.16 µM, first compound 0.00316 µM
[14] = second compound 3.16 µM, first compound 0.01 µM
[15] = second compound 3.16 µM, first compound 0.0316 µM
[16] = second compound 3.16 µM, first compound 0.1 µM
[17] = second compound 10 µM, first compound 0.00316 µM
[18] = second compound 10 µM, first compound 0.01 µM
[19] = second compound 10 µM, first compound 0.0316 µM
[20] = second compound 10 µM, first compound 0.1 µM
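Note: exposure lasted seven days after three days of spheroid growth.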
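Throughout, for viability, T/C: 100% = DMSO vehicle control luminescence.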

Compound: CC(C)CC(NC(=O)CNC(=O)c1cc(Cl)ccc1Cl)B1OC(=O)CC(CC(=O)O)(C(=O)O)O1 (stereo not given) + NC1CC1c1ccc(-c2cccc(O)c2)cc1
- IC50 (second compound 0.1 µM): 3.66 nM
- IC50 (second compound 0.316 µM): 3.45 nM
- IC50 (second compound 1 µM): 2.66 nM
- IC50 (second compound 3.16 µM): 2.61 nM
- IC50 (second compound 10 µM): 1.86 nM
- viability, T/C (second compound 0.1 µM, first compound 0.000316 µM): 95.3%
- viability, T/C (second compound 0.1 µM, first compound 0.001 µM): 97.8%
- viability, T/C [1]: 49.6%
- viability, T/C [2]: 21.4%
- viability, T/C [3]: 0.86%
- viability, T/C [4]: 0.21%
- viability, T/C (second compound 0.316 µM, first compound 0.000316 µM): 123%
- viability, T/C (second compound 0.316 µM, first compound 0.001 µM): 121%
- viability, T/C [5]: 50.4%
- viability, T/C [6]: 18%
- viability, T/C [7]: 1%
- viability, T/C [8]: 0.16%
- viability, T/C (second compound 1 µM, first compound 0.000316 µM): 105%
- viability, T/C (second compound 1 µM, first compound 0.001 µM): 108%
- viability, T/C [9]: 39.5%
- viability, T/C [10]: 18.4%
- viability, T/C [11]: 0.85%
- viability, T/C [12]: 0.15%
- viability, T/C (second compound 3.16 µM, first compound 0.000316 µM): 97.7%
- viability, T/C (second compound 3.16 µM, first compound 0.001 µM): 93.3%
- viability, T/C [13]: 37.4%
- viability, T/C [14]: 19.5%
- viability, T/C [15]: 0.76%
- viability, T/C [16]: 0.15%
- viability, T/C (second compound 10 µM, first compound 0.000316 µM): 81.1%
- viability, T/C (second compound 10 µM, first compound 0.001 µM): 69.3%
- viability, T/C [17]: 33.2%
- viability, T/C [18]: 10.2%
- viability, T/C [19]: 0.25%
- viability, T/C [20]: 0.36%

Compound: O=C(C=Cn1cnc(-c2cc(C(F)(F)F)cc(C(F)(F)F)c2)n1)NNc1cnccn1 + NC1CCC(NC2CC2c2ccccc2)CC1
- IC50 (second compound 0.1 µM): 18.8 nM
- IC50 (second compound 0.316 µM): 17.6 nM
- IC50 (second compound 1 µM): 11.4 nM
- IC50 (second compound 3.16 µM): 17 nM
- IC50 (second compound 10 µM): 20.7 nM
- viability, T/C [1]: 87.4%
- viability, T/C [2]: 65.9%
- viability, T/C [3]: 36.3%
- viability, T/C [4]: 32.7%
- viability, T/C (second compound 0.1 µM, first compound 0.316 µM): 28.9%
- viability, T/C (second compound 0.1 µM, first compound 1 µM): 26.9%
- viability, T/C [5]: 102%
- viability, T/C [6]: 60.6%
- viability, T/C [7]: 39%
- viability, T/C [8]: 31.3%
- viability, T/C (second compound 0.316 µM, first compound 0.316 µM): 29.7%
- viability, T/C (second compound 0.316 µM, first compound 1 µM): 28.1%
- viability, T/C [9]: 87.4%
- viability, T/C [10]: 51%
- viability, T/C [11]: 36.5%
- viability, T/C [12]: 32.7%
- viability, T/C (second compound 1 µM, first compound 0.316 µM): 28.1%
- viability, T/C (second compound 1 µM, first compound 1 µM): 26.2%
- viability, T/C [13]: 99.5%
- viability, T/C [14]: 55.4%
- viability, T/C [15]: 44%
- viability, T/C [16]: 33%
- viability, T/C (second compound 3.16 µM, first compound 0.316 µM): 29.6%
- viability, T/C (second compound 3.16 µM, first compound 1 µM): 27.2%
- viability, T/C [17]: 99.2%
- viability, T/C [18]: 63.2%
- viability, T/C [19]: 40.7%
- viability, T/C [20]: 36.8%
- viability, T/C (second compound 10 µM, first compound 0.316 µM): 31.8%
- viability, T/C (second compound 10 µM, first compound 1 µM): 29.5%
